Reference: PMC12615753, “Glutathione as a taste modulator: molecular mechanisms of interaction with umami and sweet taste receptors” (Food Chemistry: Molecular Sciences, 2025)

Molecular target: T1, hTAS1R1 H71A/rTAS1R3 (UniProt Q7RTX1+Q923K1, H71A)
T1 construct: The cDNA coding region of rTAS1R3 was synthesized with optimized-codon usage for human expression; expressed in transfected cells; host or cells: HEK293T/17
T1 sequence (Q7RTX1 21-841 H71A): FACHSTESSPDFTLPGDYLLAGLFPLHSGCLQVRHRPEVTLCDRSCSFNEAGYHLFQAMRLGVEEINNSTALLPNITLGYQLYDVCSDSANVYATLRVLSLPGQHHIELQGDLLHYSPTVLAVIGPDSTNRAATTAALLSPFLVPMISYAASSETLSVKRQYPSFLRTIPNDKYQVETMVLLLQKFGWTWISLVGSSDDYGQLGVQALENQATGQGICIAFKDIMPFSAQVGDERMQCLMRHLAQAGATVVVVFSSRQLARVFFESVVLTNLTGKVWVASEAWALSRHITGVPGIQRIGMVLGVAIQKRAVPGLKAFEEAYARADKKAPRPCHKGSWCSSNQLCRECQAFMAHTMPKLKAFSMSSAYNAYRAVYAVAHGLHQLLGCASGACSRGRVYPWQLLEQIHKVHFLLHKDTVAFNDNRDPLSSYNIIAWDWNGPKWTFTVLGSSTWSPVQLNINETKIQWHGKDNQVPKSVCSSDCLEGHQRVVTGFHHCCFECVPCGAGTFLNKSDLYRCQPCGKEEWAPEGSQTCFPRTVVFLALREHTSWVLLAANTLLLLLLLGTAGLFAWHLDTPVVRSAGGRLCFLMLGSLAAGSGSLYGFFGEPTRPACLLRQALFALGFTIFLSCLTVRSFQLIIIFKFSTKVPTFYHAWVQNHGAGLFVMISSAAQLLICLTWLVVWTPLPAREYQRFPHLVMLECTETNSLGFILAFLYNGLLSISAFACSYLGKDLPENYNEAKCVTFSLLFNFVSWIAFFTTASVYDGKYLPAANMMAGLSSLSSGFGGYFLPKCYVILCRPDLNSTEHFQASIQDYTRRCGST
T1 sequence (Q923K1 21-858): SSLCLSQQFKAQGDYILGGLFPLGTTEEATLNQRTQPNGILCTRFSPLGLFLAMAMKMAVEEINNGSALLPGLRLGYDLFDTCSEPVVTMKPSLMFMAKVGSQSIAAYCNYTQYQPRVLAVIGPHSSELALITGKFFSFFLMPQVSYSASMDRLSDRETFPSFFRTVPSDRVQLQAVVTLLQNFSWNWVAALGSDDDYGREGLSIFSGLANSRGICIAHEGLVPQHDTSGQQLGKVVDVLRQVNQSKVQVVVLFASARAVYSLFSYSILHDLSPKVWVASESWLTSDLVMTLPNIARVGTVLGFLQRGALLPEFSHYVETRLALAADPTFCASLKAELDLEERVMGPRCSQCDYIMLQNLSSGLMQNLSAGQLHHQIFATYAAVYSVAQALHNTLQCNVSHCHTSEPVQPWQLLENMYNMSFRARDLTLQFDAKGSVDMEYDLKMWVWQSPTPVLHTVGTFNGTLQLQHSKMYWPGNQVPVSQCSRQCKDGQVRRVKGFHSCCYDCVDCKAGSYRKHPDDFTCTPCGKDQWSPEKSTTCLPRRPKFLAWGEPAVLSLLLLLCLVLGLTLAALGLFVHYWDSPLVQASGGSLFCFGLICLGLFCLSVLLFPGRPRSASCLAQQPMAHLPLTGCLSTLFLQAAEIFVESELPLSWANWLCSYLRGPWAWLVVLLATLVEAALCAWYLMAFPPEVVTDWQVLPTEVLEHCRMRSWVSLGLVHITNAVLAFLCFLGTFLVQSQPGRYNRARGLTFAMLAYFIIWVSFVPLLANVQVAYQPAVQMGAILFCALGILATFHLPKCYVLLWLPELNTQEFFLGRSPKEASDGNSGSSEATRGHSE
Experiment: Calcium assay, hTAS1R1 mutant co-expressed with rTAS1R3
Type: cell-based, human, rat

CCCC(CCC)NC(=O)c1ccc2c(c1)OCO2 [S807, N-(heptan-4-yl)benzo[d][1,3]dioxole-5-carboxamide, reference compound]
response to the agonist alone, vs WT (H71A): strongly affected

N[C@@H](CCC(=O)N[C@@H](CS)C(=O)NCC(=O)O)C(=O)O [GSH, γ-L-glutamyl-L-cysteinyl-glycine]
EC50: 2.03 ± 0.416 mM
effect of the added compound (1 mM) on the response to L-Glu (H71A): did not affect
Max ∆F/F0 (H71A, GSH): 0.44 ± 0.03
R1 = mutant EC50/WT EC50 (H71A, GSH): 0.8
